Reference: ChEMBL document CHEMBL5696442, “Discovery of type II inhibitors of TGFβ-activated kinase 1 (TAK1) and mitogen-activated protein kinase kinase kinase kinase 2 (MAP4K2)” (J Med Chem, 2015)

Experiments:
[1] = target: T1, Serine/threonine-protein kinase greatwall (Homo sapiens) (UniProt Q96GX5); experiment: Inhibition of MASTL Lys2 labeling site in human Huh-7 cell lysate at 1 uM by KiNativ Profiling analysis relative to control; format: subcellular
T1 sequence (whole entry): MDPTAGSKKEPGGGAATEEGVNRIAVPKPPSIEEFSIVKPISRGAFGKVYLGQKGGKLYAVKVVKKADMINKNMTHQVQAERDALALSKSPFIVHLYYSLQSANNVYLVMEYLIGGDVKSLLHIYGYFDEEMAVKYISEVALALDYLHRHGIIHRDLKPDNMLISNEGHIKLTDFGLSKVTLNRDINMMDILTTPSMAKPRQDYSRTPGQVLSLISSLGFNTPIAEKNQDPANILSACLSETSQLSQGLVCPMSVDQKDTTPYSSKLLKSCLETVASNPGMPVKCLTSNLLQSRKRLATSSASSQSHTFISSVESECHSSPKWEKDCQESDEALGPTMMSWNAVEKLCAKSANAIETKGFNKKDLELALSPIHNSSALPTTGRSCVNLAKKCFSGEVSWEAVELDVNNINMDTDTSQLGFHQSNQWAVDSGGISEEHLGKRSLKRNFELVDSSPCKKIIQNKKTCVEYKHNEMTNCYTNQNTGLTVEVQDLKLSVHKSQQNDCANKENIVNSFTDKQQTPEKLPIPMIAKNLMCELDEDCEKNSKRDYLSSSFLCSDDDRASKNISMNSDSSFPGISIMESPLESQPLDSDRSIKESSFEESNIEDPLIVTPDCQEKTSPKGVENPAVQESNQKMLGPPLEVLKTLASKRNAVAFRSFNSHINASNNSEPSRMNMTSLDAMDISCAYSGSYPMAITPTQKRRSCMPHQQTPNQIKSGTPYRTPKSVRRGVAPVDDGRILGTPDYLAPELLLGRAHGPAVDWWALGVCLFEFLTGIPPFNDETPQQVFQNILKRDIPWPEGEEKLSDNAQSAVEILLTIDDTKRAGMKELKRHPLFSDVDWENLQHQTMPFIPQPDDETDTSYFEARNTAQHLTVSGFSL

[2] = target: DNA-PK/Ku70/Ku85 (Homo sapiens) (UniProt P78527+P12956+P13010); experiment: Inhibition of DNAPK ATP labeling site harbouring GHDEREHPFLVKGGEDLR in human Huh-7 cell lysate at 1 uM by KiNativ Profiling analysis relative to control; format: subcellular
[3] = target: Microtubule-associated serine/threonine-protein kinase 3 (Homo sapiens) (UniProt O60307); experiment: Inhibition of MAST3 Lys2 labeling site in human A-375 cells at 0.5 uM by KiNativ Profiling analysis relative to control; format: cell-based
Sequence of Microtubule-associated serine/threonine-protein kinase 3 (Homo sapiens) (O60307 whole entry): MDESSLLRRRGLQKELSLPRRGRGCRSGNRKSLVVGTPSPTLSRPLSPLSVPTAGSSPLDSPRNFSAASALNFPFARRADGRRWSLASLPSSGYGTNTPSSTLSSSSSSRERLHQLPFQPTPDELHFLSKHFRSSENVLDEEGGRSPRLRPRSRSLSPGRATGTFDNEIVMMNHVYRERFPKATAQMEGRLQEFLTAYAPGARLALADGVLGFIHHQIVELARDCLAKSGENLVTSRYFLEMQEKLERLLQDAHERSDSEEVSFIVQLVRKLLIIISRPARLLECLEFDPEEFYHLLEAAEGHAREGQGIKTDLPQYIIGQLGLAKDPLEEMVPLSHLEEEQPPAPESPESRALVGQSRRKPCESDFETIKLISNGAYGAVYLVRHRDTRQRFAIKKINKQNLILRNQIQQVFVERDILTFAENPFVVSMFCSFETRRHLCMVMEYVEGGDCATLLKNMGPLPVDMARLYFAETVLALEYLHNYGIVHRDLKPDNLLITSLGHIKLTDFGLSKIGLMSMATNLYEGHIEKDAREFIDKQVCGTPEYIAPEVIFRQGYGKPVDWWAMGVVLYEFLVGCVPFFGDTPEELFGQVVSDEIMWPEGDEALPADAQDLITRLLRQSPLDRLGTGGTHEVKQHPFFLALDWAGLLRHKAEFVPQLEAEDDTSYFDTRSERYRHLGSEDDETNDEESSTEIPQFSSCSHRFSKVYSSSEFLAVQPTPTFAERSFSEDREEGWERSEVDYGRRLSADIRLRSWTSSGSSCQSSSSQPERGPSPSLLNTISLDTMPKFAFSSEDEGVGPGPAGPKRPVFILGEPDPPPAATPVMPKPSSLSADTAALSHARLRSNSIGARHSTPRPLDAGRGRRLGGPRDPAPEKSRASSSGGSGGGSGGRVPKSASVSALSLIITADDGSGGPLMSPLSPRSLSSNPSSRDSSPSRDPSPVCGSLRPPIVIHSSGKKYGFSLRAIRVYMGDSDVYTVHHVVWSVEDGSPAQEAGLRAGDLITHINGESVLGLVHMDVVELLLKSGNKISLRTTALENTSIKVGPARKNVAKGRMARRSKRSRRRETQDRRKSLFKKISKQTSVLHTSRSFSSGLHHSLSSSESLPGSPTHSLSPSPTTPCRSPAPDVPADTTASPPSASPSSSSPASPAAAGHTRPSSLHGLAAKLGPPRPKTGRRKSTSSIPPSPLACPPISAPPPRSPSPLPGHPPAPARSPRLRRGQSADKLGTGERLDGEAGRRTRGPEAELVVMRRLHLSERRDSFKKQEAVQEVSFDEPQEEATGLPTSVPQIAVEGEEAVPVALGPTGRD

[4] = target: T2, Inhibitor of nuclear factor kappa-B kinase subunit epsilon (Homo sapiens) (UniProt Q14164); experiment: Inhibition of IKKe K2 labeling site in human Huh-7 cells at 1 uM by KiNativ Profiling analysis relative to control; format: cell-based
T2 sequence (whole entry): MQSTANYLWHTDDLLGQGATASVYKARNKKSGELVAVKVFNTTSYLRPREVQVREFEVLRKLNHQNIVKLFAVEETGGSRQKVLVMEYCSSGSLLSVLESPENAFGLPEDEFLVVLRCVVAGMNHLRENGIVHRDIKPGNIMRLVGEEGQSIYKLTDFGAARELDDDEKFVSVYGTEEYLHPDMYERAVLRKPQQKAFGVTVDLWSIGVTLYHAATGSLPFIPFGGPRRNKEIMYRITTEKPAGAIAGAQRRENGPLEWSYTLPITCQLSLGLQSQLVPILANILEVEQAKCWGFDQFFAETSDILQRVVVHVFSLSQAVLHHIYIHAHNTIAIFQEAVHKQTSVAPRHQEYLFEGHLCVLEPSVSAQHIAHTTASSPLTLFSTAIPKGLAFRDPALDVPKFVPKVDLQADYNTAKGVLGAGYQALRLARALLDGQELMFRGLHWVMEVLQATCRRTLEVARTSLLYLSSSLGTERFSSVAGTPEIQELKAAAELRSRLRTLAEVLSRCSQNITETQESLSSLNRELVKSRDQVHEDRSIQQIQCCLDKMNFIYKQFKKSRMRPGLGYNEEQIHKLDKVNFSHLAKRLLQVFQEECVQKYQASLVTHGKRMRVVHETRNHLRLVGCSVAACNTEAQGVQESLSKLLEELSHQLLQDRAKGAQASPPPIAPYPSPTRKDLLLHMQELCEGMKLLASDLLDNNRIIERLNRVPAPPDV

[5] = target: Ribosomal protein S6 kinase alpha-1 (Homo sapiens) (UniProt Q15418); experiment: Inhibition of RSK1 Domain 2 K2 labeling site in human Huh-7 cells at 10 uM by KiNativ Profiling analysis relative to control; format: cell-based
Sequence of Ribosomal protein S6 kinase alpha-1 (Homo sapiens) (Q15418 whole entry, the tested form may be a part): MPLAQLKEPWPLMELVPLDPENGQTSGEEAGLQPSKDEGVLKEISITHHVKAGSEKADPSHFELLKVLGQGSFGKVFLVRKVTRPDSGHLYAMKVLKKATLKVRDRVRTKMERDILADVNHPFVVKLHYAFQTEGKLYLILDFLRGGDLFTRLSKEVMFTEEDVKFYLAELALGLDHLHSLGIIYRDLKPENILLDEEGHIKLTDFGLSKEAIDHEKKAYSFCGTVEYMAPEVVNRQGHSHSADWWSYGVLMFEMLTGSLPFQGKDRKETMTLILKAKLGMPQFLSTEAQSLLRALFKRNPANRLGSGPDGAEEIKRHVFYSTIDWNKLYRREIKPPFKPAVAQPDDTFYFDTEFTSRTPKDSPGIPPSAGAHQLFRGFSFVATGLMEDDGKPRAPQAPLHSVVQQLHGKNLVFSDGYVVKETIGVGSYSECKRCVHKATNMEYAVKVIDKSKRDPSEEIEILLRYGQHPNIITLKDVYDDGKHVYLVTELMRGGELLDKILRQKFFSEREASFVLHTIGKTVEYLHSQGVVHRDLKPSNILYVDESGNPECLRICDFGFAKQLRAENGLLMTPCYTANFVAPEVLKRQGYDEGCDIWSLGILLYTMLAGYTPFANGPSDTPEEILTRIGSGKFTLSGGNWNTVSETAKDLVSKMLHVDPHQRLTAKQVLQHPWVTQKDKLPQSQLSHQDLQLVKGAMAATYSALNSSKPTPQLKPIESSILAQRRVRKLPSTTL

[6] = target: STE20-like serine/threonine-protein kinase (Homo sapiens) (UniProt Q9H2G2); experiment: Inhibition of SLK Lys2 labeling site harbouring DLKAGNILFTLDGDIK in human A-375 cells at 5 uM by KiNativ Profiling analysis relative to control; format: cell-based
Sequence of STE20-like serine/threonine-protein kinase (Homo sapiens) (Q9H2G2 whole entry, looked up): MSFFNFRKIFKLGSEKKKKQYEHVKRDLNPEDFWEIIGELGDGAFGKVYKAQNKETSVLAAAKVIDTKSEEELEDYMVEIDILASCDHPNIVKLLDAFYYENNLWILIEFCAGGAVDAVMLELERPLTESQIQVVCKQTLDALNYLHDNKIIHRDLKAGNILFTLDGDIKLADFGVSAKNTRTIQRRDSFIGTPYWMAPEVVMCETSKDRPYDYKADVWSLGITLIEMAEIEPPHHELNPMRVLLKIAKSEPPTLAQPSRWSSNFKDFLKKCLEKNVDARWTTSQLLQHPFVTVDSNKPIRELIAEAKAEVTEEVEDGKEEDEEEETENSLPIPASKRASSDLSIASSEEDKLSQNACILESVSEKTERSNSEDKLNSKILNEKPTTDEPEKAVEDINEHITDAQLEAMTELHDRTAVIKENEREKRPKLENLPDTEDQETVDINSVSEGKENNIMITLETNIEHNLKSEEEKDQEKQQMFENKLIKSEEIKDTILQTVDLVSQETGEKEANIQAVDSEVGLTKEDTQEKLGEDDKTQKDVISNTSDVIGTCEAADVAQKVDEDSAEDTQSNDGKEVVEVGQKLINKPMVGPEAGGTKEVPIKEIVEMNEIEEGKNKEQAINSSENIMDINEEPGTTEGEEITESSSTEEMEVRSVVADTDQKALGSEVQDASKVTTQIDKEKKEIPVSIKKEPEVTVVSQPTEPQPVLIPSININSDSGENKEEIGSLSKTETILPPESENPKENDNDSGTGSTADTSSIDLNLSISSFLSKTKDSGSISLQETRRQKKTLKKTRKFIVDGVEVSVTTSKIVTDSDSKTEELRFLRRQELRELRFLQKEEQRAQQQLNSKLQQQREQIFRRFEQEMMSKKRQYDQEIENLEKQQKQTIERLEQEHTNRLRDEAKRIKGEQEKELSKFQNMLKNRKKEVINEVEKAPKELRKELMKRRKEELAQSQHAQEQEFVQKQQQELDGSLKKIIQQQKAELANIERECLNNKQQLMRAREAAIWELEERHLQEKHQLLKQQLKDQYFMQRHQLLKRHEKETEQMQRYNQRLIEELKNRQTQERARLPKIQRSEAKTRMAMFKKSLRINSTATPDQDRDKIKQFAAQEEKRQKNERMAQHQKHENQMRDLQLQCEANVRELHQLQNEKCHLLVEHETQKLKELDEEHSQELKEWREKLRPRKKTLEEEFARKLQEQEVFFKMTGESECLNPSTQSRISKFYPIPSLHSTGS

[7] = target: Vascular endothelial growth factor receptor 3 (Homo sapiens) (UniProt P35916); experiment: Inhibition of FLT4 (unknown origin) at 1 uM by Ambit Kinomescan binding assay relative to control; values are per cent of control
Sequence of Vascular endothelial growth factor receptor 3 (Homo sapiens) (P35916 whole entry): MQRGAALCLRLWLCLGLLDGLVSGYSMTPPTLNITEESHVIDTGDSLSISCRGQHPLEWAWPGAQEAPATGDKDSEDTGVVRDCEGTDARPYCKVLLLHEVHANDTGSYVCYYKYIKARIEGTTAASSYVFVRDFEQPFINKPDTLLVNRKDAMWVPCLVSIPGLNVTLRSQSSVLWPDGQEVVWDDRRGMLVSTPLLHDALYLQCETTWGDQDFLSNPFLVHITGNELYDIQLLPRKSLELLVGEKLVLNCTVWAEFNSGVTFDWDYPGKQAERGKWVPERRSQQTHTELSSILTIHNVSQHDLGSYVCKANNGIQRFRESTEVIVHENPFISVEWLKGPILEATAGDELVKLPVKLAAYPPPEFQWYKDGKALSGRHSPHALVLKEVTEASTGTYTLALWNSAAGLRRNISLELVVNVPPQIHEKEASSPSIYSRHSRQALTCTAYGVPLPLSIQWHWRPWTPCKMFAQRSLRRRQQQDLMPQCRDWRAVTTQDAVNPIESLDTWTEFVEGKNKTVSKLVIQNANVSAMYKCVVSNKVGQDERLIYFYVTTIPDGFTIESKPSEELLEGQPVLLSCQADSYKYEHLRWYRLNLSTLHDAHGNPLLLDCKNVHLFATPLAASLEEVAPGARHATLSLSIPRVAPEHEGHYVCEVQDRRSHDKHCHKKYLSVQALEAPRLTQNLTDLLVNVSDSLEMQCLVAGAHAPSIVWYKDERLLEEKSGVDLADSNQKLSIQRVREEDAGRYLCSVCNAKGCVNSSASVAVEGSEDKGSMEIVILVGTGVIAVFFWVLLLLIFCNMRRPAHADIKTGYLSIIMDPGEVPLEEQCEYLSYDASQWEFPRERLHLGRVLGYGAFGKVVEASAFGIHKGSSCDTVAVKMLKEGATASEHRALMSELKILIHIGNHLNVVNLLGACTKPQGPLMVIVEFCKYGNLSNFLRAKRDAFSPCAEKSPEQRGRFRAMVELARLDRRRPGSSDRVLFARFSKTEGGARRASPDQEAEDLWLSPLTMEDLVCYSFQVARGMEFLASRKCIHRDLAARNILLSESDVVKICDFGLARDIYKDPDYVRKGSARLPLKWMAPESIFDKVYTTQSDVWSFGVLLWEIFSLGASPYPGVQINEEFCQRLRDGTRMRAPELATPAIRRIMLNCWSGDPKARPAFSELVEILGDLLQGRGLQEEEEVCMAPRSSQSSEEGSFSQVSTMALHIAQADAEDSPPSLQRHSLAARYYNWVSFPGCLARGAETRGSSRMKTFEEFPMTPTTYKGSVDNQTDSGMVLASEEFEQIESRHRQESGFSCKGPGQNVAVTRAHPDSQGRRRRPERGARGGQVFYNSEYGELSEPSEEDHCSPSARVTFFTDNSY

[8] = target: T3, Dual specificity mitogen-activated protein kinase kinase 7 (Homo sapiens) (UniProt O14733); experiment: Inhibition of MKK7 (unknown origin) at 1 uM by Ambit Kinomescan binding assay relative to control
T3 sequence (whole entry): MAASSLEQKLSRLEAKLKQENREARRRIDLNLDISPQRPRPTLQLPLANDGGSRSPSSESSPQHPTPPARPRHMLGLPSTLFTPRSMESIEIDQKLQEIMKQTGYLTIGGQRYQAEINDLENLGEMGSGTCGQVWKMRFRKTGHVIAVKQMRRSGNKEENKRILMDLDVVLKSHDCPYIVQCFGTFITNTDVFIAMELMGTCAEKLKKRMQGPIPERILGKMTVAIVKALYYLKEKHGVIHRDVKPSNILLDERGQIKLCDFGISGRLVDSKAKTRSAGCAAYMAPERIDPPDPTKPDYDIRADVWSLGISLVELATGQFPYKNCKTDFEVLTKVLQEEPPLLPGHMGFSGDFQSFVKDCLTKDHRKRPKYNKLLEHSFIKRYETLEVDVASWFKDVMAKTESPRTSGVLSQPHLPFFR

[9] = target: NT-3 growth factor receptor (Homo sapiens) (UniProt Q16288); experiment: Inhibition of TRKC (unknown origin) at 1 uM by Ambit Kinomescan binding assay relative to control
[10] = target: RAC-beta serine/threonine-protein kinase (Homo sapiens) (UniProt P31751); experiment: Inhibition of AKT2 ATP Loop labeling site in human A-375 cells at 5 uM by KiNativ Profiling analysis relative to control; format: cell-based
Sequence of RAC-beta serine/threonine-protein kinase (Homo sapiens) (P31751 whole entry): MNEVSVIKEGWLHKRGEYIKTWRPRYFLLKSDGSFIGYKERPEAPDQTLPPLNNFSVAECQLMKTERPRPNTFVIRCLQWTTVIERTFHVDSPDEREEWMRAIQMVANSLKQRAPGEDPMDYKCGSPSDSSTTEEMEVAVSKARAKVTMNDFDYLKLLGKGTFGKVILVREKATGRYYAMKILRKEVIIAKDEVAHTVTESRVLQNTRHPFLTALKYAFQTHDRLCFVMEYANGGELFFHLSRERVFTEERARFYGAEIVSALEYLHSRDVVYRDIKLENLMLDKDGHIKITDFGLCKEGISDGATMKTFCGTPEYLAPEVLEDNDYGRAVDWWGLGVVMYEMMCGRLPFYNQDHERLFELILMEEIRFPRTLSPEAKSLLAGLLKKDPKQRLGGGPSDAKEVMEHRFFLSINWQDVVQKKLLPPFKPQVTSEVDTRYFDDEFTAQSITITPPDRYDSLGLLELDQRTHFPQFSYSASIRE

CNc1cc(Oc2cc(C(=O)Nc3cc(N4CCN(C)CC4)cc(C(F)(F)F)c3)ccc2C)ncn1
inhibition [1]: 26%
inhibition [2]: 7.9%

CCN1CCN(Cc2ccc(NC(=O)c3ccc(C)c(Oc4ccnc5[nH]ccc45)c3)cc2C(F)(F)F)CC1
inhibition [3]: 2.5%
inhibition [4]: 17.7%
inhibition [5]: 8%

CCN1CCN(Cc2ccc(NC(=O)c3ccc(C)c(/C=C/c4cnc5[nH]ccc5c4OC)c3)cc2C(F)(F)F)CC1
inhibition [6]: 12.2%
residual activity [7]: 26%
inhibition [8]: 39%
inhibition [9]: 47%
inhibition [10]: 13.3%
